Measured values: patent publication US20260018245A1, “SYSTEMS AND METHODS FOR IDENTIFYING AND TARGETING COLLATERAL LETHAL GENES” (The Regents of the University of Michigan, priority 2022, published 2026)

Tests used:
Type in all cases: cell-based
SKOV3 cells = assay: Two-drug synergy of rotenone and MTHFD2 inhibitor on viability (SynergyFinder); settings: MTHFD2 inhibitor combined with complex I inhibitor rotenone
Excerpt: (§1) FIG. 11 Investigating alternative metabolic pathways to rescue UQCR11-null cells from collateral lethal targeting of MTHFD2. (a) Correlation between NDUFS7 mRNA expression and copy-number alterations of the 19p13.3 locus, represented by UQCR11 copy-number in TCGA OVCA dataset (n=303). Correlations estimated using Spearman's rank correlation test. (b) Gene expression of NDUFS7 measured via qRT-PCR in UQCR11-null lines (OVCAR8, CAOV3, HeyA8) relative to NDUFS7 expression in UQCR11-intact line (SKOV3). Data representative of two independent experiments presented as mean±s.d. (n=5), analyzed using ordinary one-way ANOVA with Dunnett's correction for multiple comparisons. (c) Doseresponse curve for single-agent inhibition in SKOV3 cells by either Complex I inhibitor, rotenone, or MTHFD2 inhibitor. […] Data are representative of two independent experiments and presented as mean±s.e.m (n=3) and analyzed using two-tailed Welch's t-test. […] Viability decrease was measured 72 h after inhibitor treatment relative to vehicle control. […] (n=6) and analyzed using ordinary 2-way ANOVA with Sidak's correction for multiple comparisons. […] (n=4) and analyzed using two-tailed Welch's t-test. […] Viability decrease was measured 72 h after inhibitor treatment relative to vehicle control. […] (n=5) and analyzed using two-tailed Welch's t-test.

UQCR11-null HeyA8 cells = assay: Resistance to MTHFD2 inhibition upon AOX expression or UQCR11 overexpression; settings: 72 h
Excerpt: as §1

[1] = system: parental ovarian cancer lines and isogenic SKOV3 lines; assay: Viability with MTHFD2 inhibitor and uridine supplementation; settings: UQCR11-null parental and SKOV3 shUQCR11 cells compared with UQCR11-intact cells
Protocol: FIG. 15 Investigating metabolic consequence of Complex III impairment and activity of paralogous pathways other than oxidative MTHFD2. (a) Effect of MTHFD2 inhibitor ([…]) and uridine (50 μM) supplementation on viability of parental ovarian cancer lines that are UQCR11—intact (SKOV3) or UQCR11-null (HeyA8, OVCAR8, CAOV3). Data are representative of two independent experiments and presented as mean±s.d. (n=6). Data analyzed with one-way ANOVA with Tukey's correction for multiple comparisons. (b) Effect of MTHFD2 inhibitor and uridine supplementation on viability of isogenic SKOV3 lines expressing shScramble or shUQCR11. […] Data analyzed with one-way ANOVA with Tukey's correction for multiple comparisons. […] (n=6) and analyzed using two-tailed Student's t-test. (d) mRNA expression of NNT, IDH2, IDH3A measured via qRT-PCR after knocking down with shNNT, shIDH2, and shIDH3A, relative to scramble shRNA (shScr), verifying knockdown efficiency in SKOV3 and OVCAR8 cell-lines. […] Data analyzed using unpaired two-tailed Student's t-test. […] Data are analyzed using ordinary one-way ANOVA with multiple comparisons. […] Loss of viability calculated by comparing respective viability in vehicle control-treated cells to MTHFD2 inhibitor-treated cells. […] (n=6) and analyzed using ordinary one-way ANOVA with Dunnett's correction for multiple comparisons. Error bars are calculated using propagation of error principles.

Cc1c(N2CCN(C)[C@@H](C)C2)ccc2c3c(c(=O)oc12)CN(C(=O)c1ccc(NS(C)(=O)=O)c(OC(F)(F)F)c1)CC3 [DS18561882]
effect of co-inhibition on viability (SKOV3 cells): synergistic effect
rescue from MTHFD2 inhibitor-mediated cell death (UQCR11-null HeyA8 cells; HeyA8 ectopically expressing alternative oxidase AOX): partially rescued
rescue from MTHFD2 inhibitor-mediated cell death (UQCR11-null HeyA8 cells; HeyA8 overexpressing UQCR11): partially rescued
proliferation [1]: suppressed proliferation
